Data from ChEMBL document CHEMBL4818987, “Recent advances of podophyllotoxin/epipodophyllotoxin hybrids in anticancer activity, mode of action, and structure-activity relationship: An update (2010-2020)” (Eur J Med Chem, 2020).
pIC50: −log10 of the molar value.

Key:
HepG2 [1] = experiment: Antiproliferative activity against human HepG2 cells incubated for 48 hrs by MTT assay; assay type: functional, cell-based; settings: HepG2, 48 h
MCF7 = experiment: Antiproliferative activity against human MCF7 cells incubated for 48 hrs by MTT assay; assay type: functional, cell-based; settings: MCF7, 48 h
A549 [2] = experiment: Antiproliferative activity against human A549 cells incubated for 48 hrs by MTT assay; assay type: functional, cell-based; settings: A549, 48 h
HeLa [3] = experiment: Antiproliferative activity against human HeLa cells incubated for 48 hrs by MTT assay; assay type: functional, cell-based
A549 [4] = experiment: Antiproliferative activity against human A549 cells incubated for 24 hrs by MTT assay; assay type: functional, cell-based; settings: A549, 24 h
HeLa [5] = experiment: Antiproliferative activity against human HeLa cells incubated for 24 hrs by MTT assay; assay type: functional, cell-based
Calu-1 = experiment: Antiproliferative activity against human Calu-1 cells incubated for 24 hrs by MTT assay; assay type: functional, cell-based; settings: Calu-1, 24 h
HCT-116 = experiment: Antiproliferative activity against human HCT116 cells incubated for 3 days by MTT assay; assay type: functional, cell-based; settings: HCT-116, 72 h
A549 [6] = experiment: Antiproliferative activity against human A549 cells incubated for 3 days by MTT assay; assay type: functional, cell-based; settings: A549, 72 h
HepG2 [7] = experiment: Antiproliferative activity against human HepG2 cells incubated for 3 days by MTT assay; assay type: functional, cell-based; settings: HepG2, 72 h
K562/Adr = experiment: Cytotoxicity against human K562/ADR cells incubated for 72 hrs by CCK8 assay; assay type: functional, cell-based
K562 = experiment: Cytotoxicity against human K562 cells incubated for 72 hrs by CCK8 assay; assay type: functional, cell-based; settings: K562, 72 h
[8] = Resistance index, ratio of IC50 for human K562/ADR cells to IC50 for human K562 cells; assay type: functional

With `COc1cc([C@@H]2c3cc4c(cc3[C@@H](O[C@H]3CC[C@@H](O)[C@@H](C)O3)[C@H]3COC(=O)[C@H]23)OCO4)cc(OC)c1O` the pIC50 (HepG2 [1]) was 7.38, the pIC50 (MCF7) was 7.38 and the pIC50 (A549 [2]) was 7.38. For the same compound, the pIC50 (HeLa [3]) was 7.38.

`COc1cc([C@@H]2c3cc4c(cc3[C@H](OC(=O)CCCCC3CCSC(c5ccccc5C)S3)[C@H]3COC(=O)[C@H]23)OCO4)cc(OC)c1OC` (some centres not stated) showed a pIC50 (A549 [4]) of 5.57, a pIC50 (HeLa [5]) of 5.57 and a pIC50 (Calu-1) of 5.57.

For `COc1cc([C@@H]2c3cc4c(cc3[C@@H](O[C@@H]3CC[C@@H](O)[C@@H](C(C)C)O3)[C@H]3COC(=O)[C@H]23)OCO4)cc(OC)c1O`, the pIC50 (HepG2 [1]) was 7.38, the pIC50 (MCF7) was 7.38 and the pIC50 (A549 [2]) was 7.38. The pIC50 (HeLa [3]) was 7.38.

`COc1cc([C@@H]2c3cc4c(cc3[C@H](OC(=O)CCCCC3CCSC(c5ccc(C(C)C)cc5)S3)[C@H]3COC(=O)[C@H]23)OCO4)cc(OC)c1OC` (some centres not stated) gave a pIC50 (A549 [4]) of 5.57, a pIC50 (HeLa [5]) of 5.57 and a pIC50 (Calu-1) of 5.57.

With `COc1ccccc1C1SCCC(CCCCC(=O)O[C@H]2c3cc4c(cc3[C@@H](c3cc(OC)c(OC)c(OC)c3)[C@H]3C(=O)OC[C@@H]32)OCO4)S1` (some centres not stated) the pIC50 (A549 [4]) was 5.57, the pIC50 (HeLa [5]) was 5.57 and the pIC50 (Calu-1) was 5.57.

In the case of `COc1cc([C@@H]2c3cc4c(cc3[C@@H](NC(=S)NC(=O)c3ccc(F)cc3)[C@H]3COC(=O)[C@H]23)OCO4)cc(OC)c1OC`, the pIC50 (HCT-116) was 7.00, the pIC50 (A549 [6]) was 7.00 and the pIC50 (HepG2 [7]) was 7.00.

Compound `COc1cc([C@@H]2c3cc4c(cc3[C@@H](O[C@@H]3CC[C@@H](O)[C@H](C(C)C)O3)[C@H]3COC(=O)[C@H]23)OCO4)cc(OC)c1O` has a pIC50 (HepG2 [1]) of 7.38, a pIC50 (MCF7) of 7.38 and a pIC50 (A549 [2]) of 7.38. For the same compound, the pIC50 (HeLa [3]) was 7.38.

For `COc1cc([C@@H]2c3cc4c(cc3[C@H](OC(=O)CCCCC3CCSC(c5ccc(Br)cc5)S3)[C@H]3COC(=O)[C@H]23)OCO4)cc(OC)c1OC` (some centres not stated), the pIC50 (A549 [4]) was 5.57, the pIC50 (HeLa [5]) was 5.57 and the pIC50 (Calu-1) was 5.57.

`COc1ccc(C2SCCC(CCCCC(=O)O[C@H]3c4cc5c(cc4[C@@H](c4cc(OC)c(OC)c(OC)c4)[C@H]4C(=O)OC[C@@H]43)OCO5)S2)cc1OC` (some centres not stated) showed a pIC50 (A549 [4]) of 5.57, a pIC50 (HeLa [5]) of 5.57 and a pIC50 (Calu-1) of 5.57.

With `CCC[C@H]1O[C@H](O[C@@H]2c3cc4c(cc3[C@@H](c3cc(OC)c(O)c(OC)c3)[C@H]3C(=O)OC[C@@H]32)OCO4)CC[C@H]1O` the pIC50 (HepG2 [1]) was 7.38, the pIC50 (MCF7) was 7.38 and the pIC50 (A549 [2]) was 7.38. For the same compound, the pIC50 (HeLa [3]) was 7.38.

Compound `COc1cc([C@@H]2c3cc4c(cc3[C@H](OC(=O)CCCCC3CCSC(c5ccc(Cl)cc5)S3)[C@H]3COC(=O)[C@H]23)OCO4)cc(OC)c1OC` (some centres not stated) has a pIC50 (A549 [4]) of 5.57, a pIC50 (HeLa [5]) of 5.57 and a pIC50 (Calu-1) of 5.57.

Work on `COc1cc([C@@H]2c3cc4c(cc3[C@H](O[C@H]3CC[C@@H](O)[C@H](C)O3)[C@H]3COC(=O)[C@H]23)OCO4)cc(OC)c1OC` yielded a pIC50 (HepG2 [1]) of 7.38, a pIC50 (MCF7) of 7.38 and a pIC50 (A549 [2]) of 7.38. It also gave a pIC50 (HeLa [3]) of 7.38.

With `COc1cc([C@@H]2c3cc4c(cc3[C@H](OC(=O)CCCCC3CCSC(c5ccccc5Cl)S3)[C@H]3COC(=O)[C@H]23)OCO4)cc(OC)c1OC` (some centres not stated) the pIC50 (A549 [4]) was 5.57, the pIC50 (HeLa [5]) was 5.57 and the pIC50 (Calu-1) was 5.57.

With `COc1ccc(/C=C/C(=O)O[C@H]2c3cc4c(cc3[C@@H](c3cc(OC)c(OC)c(OC)c3)[C@H]3C(=O)OC[C@@H]32)OCO4)cc1` the pIC50 (K562/Adr) was 7.96, the pIC50 (K562) was 7.96 and the “Ratio IC50” value [8] was 1.1.

`CCC[C@@H]1O[C@@H](O[C@H]2c3cc4c(cc3[C@@H](c3cc(OC)c(OC)c(OC)c3)[C@H]3C(=O)OC[C@@H]32)OCO4)CC[C@H]1O` showed a pIC50 (HepG2 [1]) of 7.38, a pIC50 (MCF7) of 7.38 and a pIC50 (A549 [2]) of 7.38. For the same compound, the pIC50 (HeLa [3]) was 7.38.

In the case of `COc1cc([C@@H]2c3cc4c(cc3[C@H](OC(=O)CCCCC3CCSC(c5cccc(Cl)c5Cl)S3)[C@H]3COC(=O)[C@H]23)OCO4)cc(OC)c1OC` (some centres not stated), the pIC50 (A549 [4]) was 5.57, the pIC50 (HeLa [5]) was 5.57 and the pIC50 (Calu-1) was 5.57.

In the case of `COc1cc([C@@H]2c3cc4c(cc3[C@H](OC(=O)CCCCC3CCSC(c5ccccc5)S3)[C@H]3COC(=O)[C@H]23)OCO4)cc(OC)c1OC` (some centres not stated), the pIC50 (A549 [4]) was 5.57, the pIC50 (HeLa [5]) was 5.57 and the pIC50 (Calu-1) was 5.57.

Compound `COc1cc([C@@H]2c3cc4c(cc3[C@@H](NC(=S)NC(=O)c3ccccc3Cl)[C@H]3COC(=O)[C@H]23)OCO4)cc(OC)c1OC` has a pIC50 (HCT-116) of 7.00, a pIC50 (A549 [6]) of 7.00 and a pIC50 (HepG2 [7]) of 7.00.

In the case of `CCC[C@H]1O[C@@H](O[C@@H]2c3cc4c(cc3[C@@H](c3cc(OC)c(O)c(OC)c3)[C@H]3C(=O)OC[C@@H]32)OCO4)CC[C@H]1O`, the pIC50 (HepG2 [1]) was 7.38, the pIC50 (MCF7) was 7.38 and the pIC50 (A549 [2]) was 7.38. The pIC50 (HeLa [3]) was 7.38.

With `COc1cc([C@@H]2c3cc4c(cc3[C@@H](NC(=S)NC(=O)c3cccc(C)c3)[C@H]3COC(=O)[C@H]23)OCO4)cc(OC)c1OC` the pIC50 (HCT-116) was 7.00, the pIC50 (A549 [6]) was 7.00 and the pIC50 (HepG2 [7]) was 7.00.
